Blank lines part the entries; values can stand above or below the compound they belong to.
What was measured:
[1] = test system: 3813 SMA patient-derived fibroblast cells; assay: In vitro gems assay; type: cell-based, Human; conditions: 1 mM, SMA patient line
Description: The following example illustrates how tetracycline compound of the invention increase gems in vitro. A glass cover slide was added into each well of 6 well plates and 1×10^4 cells (3813 SMA patient-derived fibroblast cells or 3814 unaffected family member-derived fibroblast cells) in 2 mL were added. After approximately 6 hours, the medium was changed and the desired compound was added to the appropriate well at indicated concentrations. After 12 hours, the medium was changed and the desired compound was added to the appropriate well again. After 24 hours, one set of slides was fixed and the medium was changed and the desired compound was added to the appropriate well again. After 36 hours, the medium was changed and the desired compound was added to the appropriate well again. Another set of cells were fixed on the slides at 48 hours.
Immunofluorescence staining of the cells was performed by washing the cells 2 times with PBS (phosphate buffered saline) and fixing the cells on slides in 4% paraformaldehyde for 10 minutes on ice. The cells were washed 3 times for 5 minutes with PBS, then were permeabilized on the cover slip with 0.2% TritonX, 0.5% BSA in PBS and incubated for 5 minutes on ice. […] The cells were again washed 2 times for five minutes with PBS, mounted on slides with Molecular Probes Prolong Antifade kit, dried and analyzed with Axioskop widefield fluourescence microscope.

S. aureus (SA RN450) = assay: Antibacterial MIC, gram positive; type: cell-based; conditions: CLSI methodology, 35° C., 18-24 hours
E. coli (EC D1-209) = assay: Antibacterial MIC, gram negative; type: cell-based; conditions: CLSI methodology, 35° C., 18-24 hours
[2] = Brain-penetrating ability, brain:plasma ratio; type: in vivo, Male CD1 mice; conditions: iv; for Ratio of Brain to Plasma Levels (at T = 3 hours, %): mouse, in vivo, 5 mg/kg
Description: Male CD1 mice were administered various tetracycline compounds (i.v. at a dose of 5 mg/kg). After 15 minutes, 1 hour and 3 hours post-dose, 3 mice were sacrificed, exsanguinated, and brains harvested and snap frozen. Blood was centrifuged and the plasma removed and frozen.

SMN2 mRNA = assay: In vitro cell-free splicing assay for inclusion of exon 7; type: biochemical; conditions: HeLa cell nuclear extract, 30° C., 3 hours
Procedure, shortened: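 ^32P-labelled SMN2 minigene pre-mRNA (exon 6 to part of exon 8; 10 fmol) spliced 3 h at 30 °C in 30% HeLa nuclear extract with 0.5 mM ATP, 1.56 mM MgCl2, pH 7.4, plus compound or buffer. Exon 7 inclusion quantified by denaturing PAGE and phosphorimaging. Emax is maximal % inclusion and Cmax the lowest concentration (μM) reaching it, reported as binned grades.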

SMILES: CCCC(CCC)C(=O)O [valproic acid]
increase in the number of gems/100 cells [1]: 1.7 fold

Ratio of Brain to Plasma Levels (at T = 3 hours, %) [2]: 50.7%
SMILES: COCCN(C)CC(=O)c1ccc(O)c2c1CC1CC3C(N(C)C)C(O)=C(C(N)=O)C(=O)C3(O)C(O)=C1C2=O (stereo not drawn) [BO]
MIC Gram Positive (SA RN450) (S. aureus (SA RN450)): *** (Good antibacterial activity (e.g., less than about 4 μg/mL)) | MIC Gram Negative (EC D1-209) (E. coli (EC D1-209)): * (weak antibacterial activity (greater than about 8 μg/mL))

SMILES: COCCNCC(=O)c1ccc(O)c2c1CC1CC3C(N(C)C)C(O)=C(C(N)=O)C(=O)C3(O)C(O)=C1C2=O (stereo not drawn) [AG]
Cmax (lowest compound concentration at which the maximum exon 7 inclusion occurs) (SMN2 mRNA): ** (concentrations between 40 and 10 μM) | Emax (maximum percentage exon 7 inclusion observed) (SMN2 mRNA): * (percentage inclusion values of less than 10%) | MIC Gram Positive (SA RN450) (S. aureus (SA RN450)): ** (modest antibacterial activity (between about 4 and 8 μg/mL)) | MIC Gram Negative (EC D1-209) (E. coli (EC D1-209)): * (weak antibacterial activity (greater than about 8 μg/mL))

SMILES: CN(C)C1C(O)=C(C(N)=O)C(=O)C2(O)C(O)=C3C(=O)c4c(O)ccc(-c5cccc(C(=O)NCCO)c5)c4CC3CC12 (stereo not drawn) [CK]
Cmax (lowest compound concentration at which the maximum exon 7 inclusion occurs) (SMN2 mRNA): ** (concentrations between 40 and 10 μM) | Emax (maximum percentage exon 7 inclusion observed) (SMN2 mRNA): ** (values of 10-20%) | MIC Gram Positive (SA RN450) (S. aureus (SA RN450)): *** (Good antibacterial activity (e.g., less than about 4 μg/mL)) | MIC Gram Negative (EC D1-209) (E. coli (EC D1-209)): * (weak antibacterial activity (greater than about 8 μg/mL))

Ratio of Brain to Plasma Levels (at T = 3 hours, %) [2]: 41.6%
SMILES: CN(C)C1C(O)=C(C(N)=O)C(=O)C2(O)C(O)=C3C(=O)c4c(O)ccc(-c5cccc(CCCN6CCCCC6)c5)c4CC3CC12 (stereo not drawn) [BN]
Cmax (lowest compound concentration at which the maximum exon 7 inclusion occurs) (SMN2 mRNA): *** (concentrations of less than 10 μM) | Emax (maximum percentage exon 7 inclusion observed) (SMN2 mRNA): *** (values greater than 20%) | MIC Gram Positive (SA RN450) (S. aureus (SA RN450)): *** (Good antibacterial activity (e.g., less than about 4 μg/mL)) | MIC Gram Negative (EC D1-209) (E. coli (EC D1-209)): ** (modest antibacterial activity (between about 4 and 8 μg/mL))

SMILES: CC(=O)N1CCN(CC(=O)c2ccc(O)c3c2CC2CC4C(N(C)C)C(O)=C(C(N)=O)C(=O)C4(O)C(O)=C2C3=O)CC1 (stereo not drawn) [BS]
Cmax (lowest compound concentration at which the maximum exon 7 inclusion occurs) (SMN2 mRNA): * (concentrations of greater than 40 μM) | Emax (maximum percentage exon 7 inclusion observed) (SMN2 mRNA): ** (values of 10-20%) | MIC Gram Positive (SA RN450) (S. aureus (SA RN450)): *** (Good antibacterial activity (e.g., less than about 4 μg/mL)) | MIC Gram Negative (EC D1-209) (E. coli (EC D1-209)): * (weak antibacterial activity (greater than about 8 μg/mL))

Kp at 3 h ([2]; male, CD1, mouse, brain and plasma, i.v. 5 mg/kg, 3 hours post-dose, read-out: Ratio of Brain to Plasma Levels (at T = 3 hours, %)): 1.28
SMILES: CN(C)c1ccc(O)c2c1C[C@H]1C[C@H]3[C@H](N(C)C)C(O)=C(C(N)=O)C(=O)[C@@]3(O)C(O)=C1C2=O [Minocycline, minocycline, reference compound]

SMILES: COCCNCc1ccoc1-c1ccc(O)c2c1CC1CC3C(N(C)C)C(O)=C(C(N)=O)C(=O)C3(O)C(O)=C1C2=O (stereo not drawn) [BQ]
Cmax (lowest compound concentration at which the maximum exon 7 inclusion occurs) (SMN2 mRNA): *** (concentrations of less than 10 μM) | Emax (maximum percentage exon 7 inclusion observed) (SMN2 mRNA): ** (values of 10-20%) | MIC Gram Positive (SA RN450) (S. aureus (SA RN450)): *** (Good antibacterial activity (e.g., less than about 4 μg/mL)) | MIC Gram Negative (EC D1-209) (E. coli (EC D1-209)): * (weak antibacterial activity (greater than about 8 μg/mL))

SMILES: CN(CCC#N)Cc1cccc(-c2ccc(O)c3c2CC2CC4C(N(C)C)C(O)=C(C(N)=O)C(=O)C4(O)C(O)=C2C3=O)c1 (stereo not drawn) [BL]
Cmax (lowest compound concentration at which the maximum exon 7 inclusion occurs) (SMN2 mRNA): * (concentrations of greater than 40 μM) | Emax (maximum percentage exon 7 inclusion observed) (SMN2 mRNA): ** (values of 10-20%) | MIC Gram Positive (SA RN450) (S. aureus (SA RN450)): *** (Good antibacterial activity (e.g., less than about 4 μg/mL)) | MIC Gram Negative (EC D1-209) (E. coli (EC D1-209)): * (weak antibacterial activity (greater than about 8 μg/mL))

SMILES: CC(C)N(CCNC(=O)c1cccc(-c2ccc(O)c3c2CC2CC4C(N(C)C)C(O)=C(C(N)=O)C(=O)C4(O)C(O)=C2C3=O)c1)C(C)C (stereo not drawn) [T]
Cmax (lowest compound concentration at which the maximum exon 7 inclusion occurs) (SMN2 mRNA): ** (concentrations between 40 and 10 μM) | Emax (maximum percentage exon 7 inclusion observed) (SMN2 mRNA): ** (values of 10-20%) | MIC Gram Positive (SA RN450) (S. aureus (SA RN450)): *** (Good antibacterial activity (e.g., less than about 4 μg/mL)) | MIC Gram Negative (EC D1-209) (E. coli (EC D1-209)): * (weak antibacterial activity (greater than about 8 μg/mL))

SMILES: CCN(CC)CCNC(=O)c1cccc(-c2ccc(O)c3c2CC2CC4C(N(C)C)C(O)=C(C(N)=O)C(=O)C4(O)C(O)=C2C3=O)c1 (stereo not drawn) [O]
Cmax (lowest compound concentration at which the maximum exon 7 inclusion occurs) (SMN2 mRNA): ** (concentrations between 40 and 10 μM) | Emax (maximum percentage exon 7 inclusion observed) (SMN2 mRNA): * (percentage inclusion values of less than 10%) | MIC Gram Positive (SA RN450) (S. aureus (SA RN450)): ** (modest antibacterial activity (between about 4 and 8 μg/mL)) | MIC Gram Negative (EC D1-209) (E. coli (EC D1-209)): * (weak antibacterial activity (greater than about 8 μg/mL))

SMILES: CN(C)C1C(O)=C(C(N)=O)C(=O)C2(O)C(O)=C3C(=O)c4c(O)ccc(-c5cccc(C(=O)NCCN)c5)c4CC3CC12 (stereo not drawn) [N]
Cmax (lowest compound concentration at which the maximum exon 7 inclusion occurs) (SMN2 mRNA): ** (concentrations between 40 and 10 μM) | Emax (maximum percentage exon 7 inclusion observed) (SMN2 mRNA): ** (values of 10-20%) | MIC Gram Positive (SA RN450) (S. aureus (SA RN450)): *** (Good antibacterial activity (e.g., less than about 4 μg/mL)) | MIC Gram Negative (EC D1-209) (E. coli (EC D1-209)): * (weak antibacterial activity (greater than about 8 μg/mL))

Source: patent US7935687B2, “Methods for treating spinal muscular atrophy using tetracycline compounds” (Paratek Pharmaceuticals, Inc., priority 2007, dated 2011)
